In patent publication US10144746B2 (GLOBAL BLOOD THERAPEUTICS, INC., priority 2015, dated 2018):

Target: Human plasma kallikrein (Homo sapiens (Human), UniProt P03952)
Experiment: In vitro plasma kallikrein inhibition assay (chromogenic substrate D-Pro-Phe-Arg-pNa, absorbance at 405 nm, IC50 determination)
Format: biochemical

Chain of Human plasma kallikrein (P03952 391-638): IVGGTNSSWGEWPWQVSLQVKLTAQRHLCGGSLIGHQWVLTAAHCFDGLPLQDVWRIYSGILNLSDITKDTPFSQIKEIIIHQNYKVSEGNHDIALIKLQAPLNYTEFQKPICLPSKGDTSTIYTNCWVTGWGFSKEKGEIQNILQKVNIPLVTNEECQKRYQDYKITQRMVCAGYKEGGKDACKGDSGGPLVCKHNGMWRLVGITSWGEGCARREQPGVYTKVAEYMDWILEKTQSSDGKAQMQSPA
Chain of Human plasma kallikrein (P03952 20-390 partner): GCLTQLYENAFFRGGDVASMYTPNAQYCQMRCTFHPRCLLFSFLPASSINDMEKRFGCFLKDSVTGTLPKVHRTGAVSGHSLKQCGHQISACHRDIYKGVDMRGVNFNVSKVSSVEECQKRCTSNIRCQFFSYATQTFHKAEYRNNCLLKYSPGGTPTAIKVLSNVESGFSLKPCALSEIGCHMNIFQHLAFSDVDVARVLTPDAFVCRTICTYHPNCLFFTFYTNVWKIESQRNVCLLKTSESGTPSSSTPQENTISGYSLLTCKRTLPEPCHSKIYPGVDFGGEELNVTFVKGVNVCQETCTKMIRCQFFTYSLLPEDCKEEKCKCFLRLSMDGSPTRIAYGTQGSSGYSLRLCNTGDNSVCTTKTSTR

| Molecule | KLKB1 pIC50 |
| --- | --- |
| NC(=NO)c1cc(F)c(CNC(=O)c2ccc3c(c2)[C@@H]2O[C@H]3c3ccc(-c4ccc(F)cc4F)cc32)c(F)c1 [Example 266, (1R,8S)-N-({2,6-difluoro-4-[N′-hydroxy-carbamimidoyl]phenyl}methyl)-12-(2,4-difluorophenyl)-15-oxatetracyclo[6.6.1.0^2,^7.0^9,1^4]-pentadeca-2,4,6,9,11,13-hexaene-4-carboxamide] | 6.99 |
| CON=C(N)c1ccc(CNC(=O)c2ccc3c(c2)[C@@H]2O[C@H]3c3ccc(C4CC4)cc32)cc1 [Example 272, (1R,8S)-12-cyclopropyl-N-({4-[N′-methoxy-carbamimidoyl]phenyl}methyl)-15-oxatetracyclo[6.6.1.0^2,^7.0^9,1^4] pentadeca-2,4,6,9,11,13-hexaene-4-carboxamide] | 5.61 |
| CON=C(N)c1cc(F)c(CNC(=O)c2ccc3c(c2)[C@@H]2O[C@H]3c3ccc(-c4nccs4)cc32)c(F)c1 [Example 274] | 5.86 |
| NC(=NO)c1ccc(CNC(=O)c2ccc3c(c2)[C@@H]2O[C@H]3c3ccc(-c4ccc(Cl)s4)cc32)cc1 [Example 276, (1S,8R)-12-(5-chlorothiophen-2-yl)-N-{[4-(N′-hydroxycarbamimidoyl)phenyl]methyl}-15-oxatetracyclo[6.6.1.0^2,^7.0^9,1^4] pentadeca-2,4,6,9,11,13-hexaene-4-carboxamide] | 4 |
| (±)-N4-[(6-amino-2,4- dimethylpyridin-3-yl)methyl]- 11-cyano-15-oxatetracyclo- [6.6.1.0^2,^7.0^9,1^4]pentadeca- 2,4,6,9,11,13-hexaene-4,12- dicarboxamide and (±)-N4-[(6- amino-2,4-dimethylpyridin-3- yl)methyl]-12-cyano-15- oxatetracyclo[6.6.1.0^2,^7.0^9,1^4] pentadeca-2,4,6,9,11,13- hexaene-4,11-dicarboxamide [Example 333] | 5.64 |
| (±)-N-[(4-carbamimidoylphenyl) methyl]-12-(4- fluorophenyl)-8-methyl-15- oxatetracyclo- [6.6.1.0^2,^7.0^9,1^4]pentadeca- 2,4,6,9,11,13-hexaene-4- carboxamide [Example 346] | 7.26 |
| (±)-N-[(6-amino-2,4- dimethylpyridin-3-yl) methyl]-12-(2,4- difluorophenyl)tetracyclo- [6.6.1.0^2,^7.0^9,1^4]hexadeca- 2,4,6,9,11,13-hexaene-4- carboxamide and (±)-N-[(6- amino-2,4-dimethylpyridin- 3-yl)methyl]-11-(2,4- difluorophenyl)tetracyclo [6.6.1.0^2,^7.0^9,1^4]hexadeca- 2,4,6,9,11,13-hexaene-4- carboxamide [Example 261] | 6.32 |
| (±)-N-[(6-amino-2,4- dimethylpyridin-3-yl)-methyl]- 12-(2,4-difluorophenyl)-15- methyl-15-azatetracyclo [6.6.1.0^2,^7.0^9,1^4]pentadeca- 2,4,6,9,11,13- hexaene-4-carboxamide and (±)-N-[(6-amino-2,4- dimethylpyridin-3-yl)methyl]- 11-(2,4-difluorophenyl)-15- methyl-15-azatetra-cyclo [6.6.1.0^2,^7.0^9,1^4]pentadeca- 2,4,6,9,11,13-hexaene-4- carboxamide [Example 115] | 4 |
| (±)-N-[(6-amino-2,4- dimethylpyridin-3-yl)methyl]- 12-(4-fluorophenyl)-1,8- dimethyl-15- oxatetracyclo[6.6.1.0^2,^7.0^9,1^4] pentadeca-2,4,6,9,11,13- hexaene-4-carboxamide and (±)-N-[(6-amino-2,4- dimethylpyridin-3-yl)methyl]- 11-(4-fluorophenyl)-1,8- dimethyl-15-oxatetracyclo [6.6.1.0^2,^7.0^9,1^4]pentadeca- 2,4,6,9,11,13-hexaene-4- carboxamide [Example 339] | 4 |
| (±)-N-[(6-amino-2,4- dimethylpyridin-3-yl)methyl]- 12-(phenylsulfanyl)-15- oxatetracyclo[6.6.1.0^2,^7.0^9,1^4] pentadeca- 2,4,6,9,11,13-hexaene-4- carboxamide (±)-N-[(6-amino-2,4- dimethylpyridin-3-yl)methyl]-11- (phenylsulfanyl)-15- oxatetracydo[6.6.1.0^2,^7.0^9,1^4] pentadeca-2,4,6,9,11,13- hexaene-4-carboxamide [Example 164] | 6.86 |
| (±)-N-[(6-amino-2,4-dimethyl- pyridin-3-yl)methyl]-12-(2,4- difluorophenyl)-11-ethenyl-15- oxatetracyclo[6.6.1.0^2,^7.0^9,1^4] pentadeca-2,4,6,9,11,13- hexaene-4-carboxamide and (±)-N-[(6-amino-2,4- dimethylpyridin-3-yl)methyl]- 11-(2,4-difluorophenyl)-12- ethenyl-15-oxatetraoyclo [6.6.1.0^2,^7.0^9,1^4]pentadeca- 2,4,6,9,11,13-hexaene-4- carboxamide [Example 322] | 8.57 |
| (±)-N-[(6-amino-2,4-dimethyl- pyridin-3-yl)methyl]-12-(2,4- difluorophenyl)-11-methyl-15- oxatetracyclo[6.6.1.0^2,^7.0^9,1^4] pentadeca-2,4,6,9(14),10,12- hexaene-4-carboxamide and (±)-N-[(6-amino-2,4- dimethylpyridin-3-yl)methyl]-11- (2,4-difluorophenyl)-12- methyl-15-oxatetracyclo [6.6.1.0^2,^7.0^9,1^4]pentadeca- 2,4,6,9(14),10,12-hexaene-4- carboxamide [Example 310] | 7.7 |
| (±)-N-[(6-amino-4-ethoxy- 2-methylpyridin-3-yl)methyl]-12- (2,4-difluorophenyl)-16-oxo-15- azatetracyclo[6.6.1.0^2,^7.0^9,1^4] hexadeca-2,4,6,9,11,13- hexaene-4-carboxamide and (±)-N-[(6-amino-4-ethoxy-2- methylpyridin-3-yl)methyl]- 11-(2,4-difluorophenyl)-16-oxo- 15-azatetracyclo[6.6.1.0^2,^7.0^9,1^4] hexadeca-2,4,6,9,11,13- hexaene-4-carboxamide [Example 163] | 6.11 |
